# From publication PMC6736568, “Discovery of Novel Anti-cryptosporidial Activities From Natural Products by in vitro High-Throughput Phenotypic Screening” (Frontiers in Microbiology, 2019)
# Counter-ions that a name gives are not always drawn. Like-named read-outs stand apart in the source and are kept apart here.
# Columns and labels:
# [1] = in vitro; conditions: for cytotoxicity at 41 h, 10 µM: human
# [2] = system: HCT-8 host cells (Hs18S)
# [3] = system: Cryptosporidium parvum; experiment: qRT-PCR assay of the growth of C. parvum in vitro in HCT-8 host cells (primary and secondary screening, EC50); type: cell-based; conditions: Cryptosporidium parvum, HCT-8; for inhibition at 10 µM: primary screening at 10 uM, read-out: Inhibition (%)
# [4] = primary screening at 10 uM, treated vs control
"Hs18S ΔCT ([2]; human, 41 h, 10 μM)",Structure (SMILES),"cytotoxicity at 41 h, 10 µM [1] [%]",inhibition at 10 µM [3] [%],cytotoxicity at 10 µM [1] [%],"Hs18S ΔCT [2, 4]",Hs18S ΔCT [2],"inhibition at 3.3 µM ([3]; secondary screening at 3.3 uM, read-out: % Inhibition (3.3 uM)) [%]"
0.01,O=c1c(-c2cc(O)c(O)c(O)c2)coc2cc(O)c(O)c(O)c12 [IRIGENOL],0.7,-13.4,–,–,–,–
-0.25,C=C1CCC2C(CC2(C)C)C(=O)CCC1O (stereo not shown) [ISOKOBUSONE],-18.7,-33.5,–,–,–,–
-0.34,O=C(/C=C/c1ccc(O)cc1)c1ccc(O)cc1O [ISOLIQUIRITIGENIN],-26.4,52.9,–,–,–,–
0.03,COc1cc(O)ccc1C(C)=O [ISOPEONOL],2.3,-12.8,–,–,–,–
-0.24,COc1c2ccoc2c(OC)c2oc(=O)ccc12 [ISOPIMPINELLIN],-18.1,-23.2,–,–,–,–
0.18,COc1cc(O)c2c(=O)c(O)c(-c3ccccc3)oc2c1 [IZALPININ],11.5,18.4,–,–,–,–
0.54,O=c1c(O)c(-c2ccc(O)cc2)oc2cc(O)cc(O)c12 [KAEMPFEROL],31.2,19.8,–,–,–,–
-0.31,NC[C@H]1O[C@H](O[C@H]2[C@H](O)[C@@H](O[C@H]3O[C@H](CO)[C@@H](O)[C@H](N)[C@H]3O)[C@H](N)C[C@@H]2N)[C@H](O)[C@@H](O)[C@@H]1O [KANAMYCIN A SULFATE],-23.9,29.3,–,–,–,–
0.22,COc1c2occc2c(OC)c2c(=O)cc(C)oc12 [KHELLIN],14.1,-11.8,–,–,–,–
0.12,CC(=O)O[C@H]1C[C@@H](OC(C)=O)C(C)(C)[C@@H]2C[C@@H](OC(C)=O)[C@]3(C)[C@H](CC[C@@]4(C)[C@H](c5ccoc5)OC(=O)[C@H]5O[C@@]534)[C@@]12C [KHIVORIN],8,52.4,–,–,–,–
0.01,CC1(C)C[C@@H]2C(=O)CC[C@H]3O[C@]3(C)CC[C@H]21 [KOBUSONE],0.5,-24.4,–,–,–,–
-0.02,COc1ccc(-c2coc3cc(O)ccc3c2=O)c(O)c1O [KOPARIN],-1.6,6.05,–,–,–,–
-0.02,Cc1cc(OC(=O)c2c(C)cc(O)cc2O)cc(O)c1C(=O)O [LECANORIC ACID],-1.2,-20,–,–,–,–
0.41,COC(=O)c1c(C)c2c(c(C)c1O)OC(=O)c1c(C)c(Cl)c(O)c(Cl)c1O2 [LEOIDIN],24.9,16.7,–,–,–,–
-0.21,N[C@@H](Cc1ccc(O)c(O)c1)C(=O)O [LEVODOPA],-15.4,-9.67,–,–,–,–

# Continued, molecule first:
Structure (SMILES),"Hs18S ΔCT ([2]; human, 41 h, 10 μM)","cytotoxicity at 41 h, 10 µM [1] [%]",inhibition at 10 µM [3] [%],cytotoxicity at 10 µM [1] [%],"Hs18S ΔCT [2, 4]",Hs18S ΔCT [2],"inhibition at 3.3 µM ([3]; secondary screening at 3.3 uM, read-out: % Inhibition (3.3 uM)) [%]"
COc1cc2occc2c2oc(=O)ccc12 [ISOBERGAPTENE],–,–,2,11,0.17,–,–
COc1cc2c(cc1OC)[C@@H]1C(=O)c3ccc4oc(C(C)C)cc4c3O[C@@H]1CO2 [ISOROTENONE],–,–,2.53,38.9,0.71,–,–
O=C(O)/C=C/C=C/c1ccccc1 [JUAREZIC ACID],-0.57,-48.4,-55.9,–,–,–,–
O=C1C=CC(=O)c2c(O)cccc21 [JUGLONE],–,–,-17.7,11.2,–,0.17,–
C=C(C)[C@H]1CN[C@H](C(=O)O)[C@H]1CC(=O)O [KAINIC ACID],–,–,-19.9,-2.6,-0.04,–,–
COC1=CC(=O)O[C@@H](/C=C/c2ccccc2)C1 [KAWAIN],–,–,16,-10.9,-0.15,–,–
c1coc(CNc2ncnc3[nH]cnc23)c1 [KINETIN],0.54,31,-42.7,–,–,–,–
Nc1ccccc1C(=O)CC(N)C(=O)O (stereo not shown) [KYNURENINE],–,–,-14.4,28.1,0.48,–,–
CC(C)=CCC[C@@H](C)[C@H]1CC[C@@]2(C)C3=C(CC[C@]12C)[C@@]1(C)CC[C@H](O)C(C)(C)[C@@H]1CC3 [LANOSTEROL],-0.24,-18.1,-22.5,–,–,–,–
CC(C)=CCC1=C(O)C(=O)c2ccccc2C1=O [LAPACHOL],-0.60,-52,91.3,–,–,–,-98
O=C1C=C(O)C(=O)c2ccccc21 [LAWSONE],-0.16,-12,-46.1,–,–,–,–
